US20260137677A1, “PROTACS USEFUL AGAINST THE MAIN PROTEASE SARS-COV-2” (Tocris Cookson Limited, priority 2022, published 2026)

Assays:
[1] = molecular target: T1, recombinant SARS-CoV-2 main protease (Mpro) (Severe acute respiratory syndrome coronavirus 2, UniProt P0DTD1); experiment: biochemical; conditions: FRET assay, Mpro 50 nM, substrate 10 μM
T1 construct: the main protease (Mpro; also called 3CLpro) which has an essential role in processing the polyproteins

[2] = test system: SARS-CoV-2 (SARS-CoV2/ZG/297-20) in Vero E6 cells; experiment: microbe, parasite or virus in culture; type: cell-based; conditions: Severe acute respiratory syndrome coronavirus 2, Vero C1008, 72 h; for inhibition at 10 µM: read-out: Antiviral Activity 10 uM; for inhibition at 50 µM: read-out: Antiviral Activity 50 uM

Row | SMILES | IC50 [1] [µM] | inhibition at 10 µM [2] [%] | inhibition at 50 µM [2] [%]
1 | O=C1CCC(N2C(=O)c3cccc(NCCOCCOCCOCCNC(=O)C(NC(=O)[C@@H](c4cccnc4)N(C(=O)c4ccco4)c4ccc5c(c4)oc4ccccc45)c4ccccc4)c3C2=O)C(=O)N1 (mixture of isomers) [TS297F1] | < 1 | < 0 | < 0
2 | O=C1CCC(N2C(=O)c3cccc(NCCCCCNC(=O)C(NC(=O)[C@@H](c4cccnc4)N(C(=O)c4ccco4)c4ccc5c(c4)oc4ccccc45)c4ccccc4)c3C2=O)C(=O)N1 (mixture of isomers) [TS301F1] | 10 to 25 | < 0 | < 0
3 | O=C1CCC(N2C(=O)c3cccc(NCCOCCOCCOCCOCCNC(=O)C(NC(=O)[C@@H](c4cccnc4)N(C(=O)c4ccco4)c4ccc5c(c4)oc4ccccc45)c4ccccc4)c3C2=O)C(=O)N1 (mixture of isomers) [TS303F1] | < 1 | < 0 | < 0
4 | O=C1CCC(N2C(=O)c3cccc(NCCOCCNC(=O)C(NC(=O)[C@@H](c4cccnc4)N(C(=O)c4ccco4)c4ccc5c(c4)oc4ccccc45)c4ccccc4)c3C2=O)C(=O)N1 (mixture of isomers) [TS312F1] | < 10 | < 0 | < 0
5 | O=C1CCC(N2C(=O)c3cccc(NCCCCNC(=O)[C@@H](NC(=O)C(c4cccnc4)N(C(=O)c4ccco4)c4ccc5c(c4)oc4ccccc45)c4ccccc4)c3C2=O)C(=O)N1 (mixture of isomers) [TS313F1] | < 1 | < 25 | < 0
6 | O=C1CCC(N2C(=O)c3cccc(NCCNC(=O)[C@@H](NC(=O)[C@@H](c4cccnc4)N(C(=O)c4ccco4)c4ccc5c(c4)oc4ccccc45)c4ccccc4)c3C2=O)C(=O)N1 (mixture of isomers) [TS365F1] | < 1 | < 75 | < 25
7 | O=C1CCC(N2C(=O)c3cccc(NCCCCCCCCNC(=O)[C@@H](NC(=O)C(c4cccnc4)N(C(=O)c4ccco4)c4ccc5c(c4)oc4ccccc45)c4ccccc4)c3C2=O)C(=O)N1 (mixture of isomers) [TS369F1] | > 25 | < 25 | < 25
8 | C[C@H](NC(=O)[C@@H](c1cccnc1)N(C(=O)c1ccco1)c1ccc(-c2ccccc2)cc1)c1ccccc1OCCCCOc1cccc2c1C(=O)N(C1CCC(=O)NC1=O)C2=O (stereo in doubt) [TS355F1] | < 10 | – | –
9 | O=C1CCC(N2C(=O)c3cccc(NCCOCCOCCNC(=O)[C@@H](NC(=O)C(c4cccnc4)N(C(=O)c4ccco4)c4ccc5c(c4)oc4ccccc45)c4ccccc4)c3C2=O)C(=O)N1 (some centres unmarked) [TS302F1] | < 10 | – | –
10 | C[C@@H](NC(=O)[C@H](c1cccnc1)N(C(=O)c1ccco1)c1ccc(-c2ccccc2)cc1)c1cccc(OCCCCOc2cccc3c2C(=O)N(C2CCC(=O)NC2=O)C3=O)c1 (some centres unmarked) [TS325F1] | < 10 | – | –
11 | C[C@@H](NC(=O)C(c1cccnc1)N(C(=O)c1ccco1)c1ccc(-c2ccccc2)cc1)c1cccc(OCCCCOc2cccc3c2C(=O)N(C2CCC(=O)NC2=O)C3=O)c1 (some centres unmarked) [TS325F2] | < 10 | – | –
12 | C[C@@H](NC(=O)[C@H](c1cccnc1)N(C(=O)c1ccco1)c1ccc(-c2ccccc2)cc1)c1cccc(OCCOc2cccc3c2C(=O)N(C2CCC(=O)NC2=O)C3=O)c1 (some centres unmarked) [TS338F1] | 10 to 25 | – | –
13 | C[C@@H](NC(=O)[C@H](c1cccnc1)N(C(=O)c1ccco1)c1ccc(-c2ccccc2)cc1)c1cccc(OCCCCCCCCOc2cccc3c2C(=O)N(C2CCC(=O)NC2=O)C3=O)c1 (some centres unmarked) [TS339F2] | 10 to 25 | – | –
14 | Cc1ncsc1-c1ccc(CNC(=O)[C@@H]2C[C@@H](O)CN2C(=O)[C@@H](NC(=O)C2(F)CC2)C(C)(C)C)c(OCCNC(=O)[C@@H](NC(=O)C(c2cccnc2)N(C(=O)c2ccco2)c2ccc3c(c2)oc2ccccc23)c2ccccc2)c1 (some centres unmarked) [TS347F1] | < 10 | – | –
15 | Cc1ncsc1-c1ccc(CNC(=O)[C@@H]2C[C@@H](O)CN2C(=O)[C@@H](NC(=O)C2(F)CC2)C(C)(C)C)c(OCCCCCCNC(=O)[C@@H](NC(=O)C(c2cccnc2)N(C(=O)c2ccco2)c2ccc3c(c2)oc2ccccc23)c2ccccc2)c1 (some centres unmarked) [TS349F1] | < 10 | – | –
